{
  "source": "paper PMC6017115",
  "about": "“Inhibitory Effect of Sauchinone on UDP-Glucuronosyltransferase (UGT) 2B7 Activity” (Molecules : A Journal of Synthetic Chemistry and Natural …, 2018)",
  "key": {"[1]": {"target": "T1, UGT1A1 (Homo sapiens, UniProt P22309)", "T1 construct": "The reaction mixture containing 0.25 mg/mL protein of HLM; tissue Corning Life Sciences 452156; host or cells: pooled human liver microsomes, 50 donors", "T1 sequence (P22309 26-533)": "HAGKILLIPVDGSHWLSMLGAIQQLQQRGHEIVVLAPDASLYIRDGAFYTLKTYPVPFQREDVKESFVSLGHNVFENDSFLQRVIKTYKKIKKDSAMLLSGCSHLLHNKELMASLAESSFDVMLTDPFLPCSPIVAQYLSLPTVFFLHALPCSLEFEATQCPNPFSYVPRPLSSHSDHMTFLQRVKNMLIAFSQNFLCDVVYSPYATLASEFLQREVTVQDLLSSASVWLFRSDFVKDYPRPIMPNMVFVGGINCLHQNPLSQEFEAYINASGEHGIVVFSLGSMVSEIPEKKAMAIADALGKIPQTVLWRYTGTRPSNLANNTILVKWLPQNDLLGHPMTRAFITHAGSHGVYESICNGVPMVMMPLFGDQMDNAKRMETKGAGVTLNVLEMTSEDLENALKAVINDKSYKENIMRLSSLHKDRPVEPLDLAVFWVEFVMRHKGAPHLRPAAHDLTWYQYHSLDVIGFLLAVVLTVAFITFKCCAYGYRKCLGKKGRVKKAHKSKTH", "test": "Inhibition of UGT1A1 (β-estradiol glucuronidation) in human liver microsomes", "format": "in vitro ADME", "conditions": "substrate 10 μM β-estradiol, mean (minimum–maximum)", "experimental": "(§1) Their IC50 values were compared to that of sauchinone. […] UGT-mediated activities in the presence of sauchinone as an inhibitor were expressed as percentages of corresponding control values (in absence of sauchinone). From percentages of control activity versus inhibitor concentrations, a sigmoid shaped curve was fitted to the data and IC50 as an enzyme inhibition parameter was calculated by fitting the Hill equation to the data using GraphPad Prism 5 (GraphPad Software Inc., San Diego, CA, USA)."}, "[2]": {"target": "T2, UGT1A4 (Homo sapiens, UniProt P22310)", "T2 construct": "The reaction mixture containing 0.25 mg/mL protein of HLM; tissue Corning Life Sciences 452156; host or cells: pooled human liver microsomes, 50 donors", "T2 sequence (P22310 29-534)": "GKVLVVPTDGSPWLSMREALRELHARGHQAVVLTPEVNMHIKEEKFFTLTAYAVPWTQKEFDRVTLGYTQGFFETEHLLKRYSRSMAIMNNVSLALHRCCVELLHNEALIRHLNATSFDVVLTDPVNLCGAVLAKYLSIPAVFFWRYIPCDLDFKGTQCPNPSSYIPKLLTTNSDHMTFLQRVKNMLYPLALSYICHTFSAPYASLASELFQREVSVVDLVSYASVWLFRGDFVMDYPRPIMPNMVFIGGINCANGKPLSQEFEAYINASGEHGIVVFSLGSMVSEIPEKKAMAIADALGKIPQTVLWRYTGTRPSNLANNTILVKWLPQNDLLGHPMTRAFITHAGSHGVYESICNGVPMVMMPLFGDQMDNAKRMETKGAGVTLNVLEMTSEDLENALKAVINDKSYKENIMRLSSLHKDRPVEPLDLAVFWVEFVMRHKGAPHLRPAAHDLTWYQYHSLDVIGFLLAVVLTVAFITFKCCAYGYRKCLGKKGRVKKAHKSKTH", "test": "Inhibition of UGT1A4 (trifluoperazine glucuronidation) in human liver microsomes", "format": "in vitro ADME", "conditions": "human liver microsomes", "experimental": "as §1"}, "[3]": {"system": "Ugt1a3", "test": "Inhibition of Ugt1a3 (CDCA) in mice liver microsomes", "format": "in vitro ADME", "conditions": "mouse, pH 7.6, read-out: IC50 of Ugt1a3-catalyzed CDCA", "experimental": "(§2) Their IC50 values were compared to that of sauchinone. […] Mice were sacrificed and then livers were removed and rinsed with saline. After weighing the livers, they were homogenized with a four-fold volume of ice-cold homogenizing buffer (0.154 M KCl, 50 mM Tris-base, 1 mM EDTA, pH 7.4). After centrifugation for 35 min at 9000× g and 4 °C, the supernatants were centrifuged for 95 min at 100,000× g and at 4 °C. The supernatants were discarded and the pellets were homogenized again with ice-cold homogenizing buffer. These aliquots were stored at −80 °C. The subsequent process to evaluate the inhibitory effects of sauchinone on UGT activities in MLM was the same as those using HLM. UGT-mediated activities in the presence of sauchinone as an inhibitor were expressed as percentages of corresponding control values (in absence of sauchinone). From percentages of control activity versus inhibitor concentrations, a sigmoid shaped curve was fitted to the data and IC50 as an enzyme inhibition parameter was calculated by fitting the Hill equation to the data using GraphPad Prism 5 (GraphPad Software Inc., San Diego, CA, USA)."}, "[4]": {"target": "T3, Ugt1a9 (Mus musculus, UniProt Q62452)", "T3 construct": "from tissue; host or cells: mouse liver microsomes prepared in house", "T3 sequence (Q62452 24-528)": "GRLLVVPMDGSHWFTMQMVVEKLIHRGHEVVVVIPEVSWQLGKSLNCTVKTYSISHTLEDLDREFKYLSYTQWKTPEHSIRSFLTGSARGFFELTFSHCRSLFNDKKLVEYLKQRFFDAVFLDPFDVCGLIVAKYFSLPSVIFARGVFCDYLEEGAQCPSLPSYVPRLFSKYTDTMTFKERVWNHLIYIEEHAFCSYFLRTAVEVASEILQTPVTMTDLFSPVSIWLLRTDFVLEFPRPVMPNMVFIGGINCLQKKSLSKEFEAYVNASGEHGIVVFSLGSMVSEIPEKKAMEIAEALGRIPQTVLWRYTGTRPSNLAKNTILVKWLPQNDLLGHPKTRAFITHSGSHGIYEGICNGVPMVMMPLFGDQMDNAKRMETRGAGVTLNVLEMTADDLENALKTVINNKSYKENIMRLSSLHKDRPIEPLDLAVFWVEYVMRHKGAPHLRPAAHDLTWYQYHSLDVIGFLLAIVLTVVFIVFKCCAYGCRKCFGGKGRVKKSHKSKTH", "test": "Inhibition of Ugt1a9 (propofol) in mice liver microsomes", "format": "in vitro ADME", "conditions": "pH 7.6, probe propofol (100 μM, in UGT substrate cocktail), read-out: IC50 of Ugt1a9-catalyzed propofol", "experimental": "as §2"}, "[5]": {"system": "Ugt2b7", "test": "Ki for Ugt2b7 in mouse liver microsomes", "format": "in vitro ADME", "conditions": "our unpublished data"}, "[6]": {"set-up": "method as in PMID 25747980", "conditions": "mice; oral administration of 100 mg/kg sauchinone; read-out: Cmax in mice plasma; cited from earlier work"}},
  "data": [
    {"smiles": "C[C@@H]1[C@H]2c3cc4c(cc3O[C@@]35OCOC3=CC(=O)[C@H](C[C@H]1C)[C@@H]25)OCO4", "note": "[Sauchinone]", "values": [
      {"measurement": "IC50", "setting": "[1]", "value": 8.83, "unit": "µM"},
      {"measurement": "inhibitory effect on UGT1A4 activity", "setting": "[2]; sauchinone up to 200 μM", "value": "negligible inhibitory effect"},
      {"measurement": "IC50", "setting": "[2]; substrate 40 μM trifluoperazine, mean (minimum–maximum), read-out: IC50 for inhibition of UGT1A4", "value": "> 200", "unit": "µM"},
      {"measurement": "IC50", "setting": "[3]", "value": 79.9, "unit": "µM"},
      {"measurement": "IC50", "setting": "[4]", "value": 29.8, "unit": "µM"},
      {"measurement": "Ki", "setting": "[5]", "value": 3.34, "unit": "µM"},
      {"measurement": "Cmax", "setting": "[6]", "value": 1530, "unit": "nM"}
    ]}
  ]
}
